According to PubChem BioAssay AID2060604 (Molecular Pharmacology Branch, DTP, NCI, 2025):

System: 379773-124-R-J2-PDC complex spheroids, viability % test/control
Assay: Anticancer human tumor 379773-124-R-J2-PDC patient-derived endometrial carcinoma cell line growth inhibition [CLK]
Settings: for IC50: curve of first compound; for viability, T/C: stronger effect = lower value
Outline: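 Patient-derived tumor cells grown as complex spheroids with HUVEC endothelial cells and mesenchymal stem cells, treated with drug combinations. Concentrations descend in half-log steps from near clinical Cmax, or from 10 microM if Cmax unknown.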

[1] = second compound 0.0316 µM, first compound 0.0316 µM
[2] = second compound 0.0316 µM, first compound 0.1 µM
[3] = second compound 0.0316 µM, first compound 0.316 µM
[4] = second compound 0.0316 µM, first compound 1 µM
[5] = second compound 0.0316 µM, first compound 3.16 µM
[6] = second compound 0.0316 µM, first compound 10 µM
[7] = second compound 0.1 µM, first compound 0.0316 µM
[8] = second compound 0.1 µM, first compound 0.1 µM
[9] = second compound 0.1 µM, first compound 0.316 µM
[10] = second compound 0.1 µM, first compound 1 µM
[11] = second compound 0.1 µM, first compound 3.16 µM
[12] = second compound 0.1 µM, first compound 10 µM
[13] = second compound 0.316 µM, first compound 0.0316 µM
[14] = second compound 0.316 µM, first compound 0.1 µM
[15] = second compound 0.316 µM, first compound 0.316 µM
[16] = second compound 0.316 µM, first compound 1 µM
[17] = second compound 0.316 µM, first compound 3.16 µM
[18] = second compound 0.316 µM, first compound 10 µM
[19] = second compound 1 µM, first compound 0.0316 µM
[20] = second compound 1 µM, first compound 0.1 µM
[21] = second compound 1 µM, first compound 0.316 µM
[22] = second compound 1 µM, first compound 1 µM
[23] = second compound 1 µM, first compound 3.16 µM
[24] = second compound 1 µM, first compound 10 µM
[25] = second compound 3.16 µM, first compound 0.0316 µM
[26] = second compound 3.16 µM, first compound 0.1 µM
[27] = second compound 3.16 µM, first compound 0.316 µM
[28] = second compound 3.16 µM, first compound 1 µM
[29] = second compound 3.16 µM, first compound 3.16 µM
[30] = second compound 3.16 µM, first compound 10 µM
[31] = second compound 10 µM, first compound 0.0316 µM
[32] = second compound 10 µM, first compound 0.1 µM
[33] = second compound 10 µM, first compound 0.316 µM
[34] = second compound 10 µM, first compound 1 µM
[35] = second compound 10 µM, first compound 3.16 µM
[36] = second compound 10 µM, first compound 10 µM
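Further: compound exposure lasted seven days before the viability readout.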
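Wherever viability, T/C is given: 100% = DMSO vehicle control wells.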

CC(C)CC(NC(=O)C(Cc1ccccc1)NC(=O)c1cnccn1)B(O)O (stereo unspecified) + CN1CCN(c2cc(C(=O)Nc3cc4cc(-c5cnn(C)c5)ccc4cn3)ccn2)CC1
IC50 (second compound 0.0316 µM): 1.8 nM
IC50 (second compound 0.1 µM): 1.72 nM
IC50 (second compound 0.316 µM): < 0.949 nM
IC50 (second compound 1 µM): < 0.949 nM
IC50 (second compound 3.16 µM): < 0.949 nM
IC50 (second compound 10 µM): < 0.949 nM
viability, T/C (second compound 0.0316 µM, first compound 0.000949 µM): 83.2%
viability, T/C (second compound 0.0316 µM, first compound 0.003 µM): 23.3%
viability, T/C (second compound 0.0316 µM, first compound 0.00949 µM): 0.24%
viability, T/C (second compound 0.0316 µM, first compound 0.03 µM): 0.17%
viability, T/C (second compound 0.0316 µM, first compound 0.0949 µM): 0.13%
viability, T/C (second compound 0.0316 µM, first compound 0.3 µM): 0.12%
viability, T/C (second compound 0.1 µM, first compound 0.000949 µM): 84.3%
viability, T/C (second compound 0.1 µM, first compound 0.003 µM): 18.2%
viability, T/C (second compound 0.1 µM, first compound 0.00949 µM): 1.22%
viability, T/C (second compound 0.1 µM, first compound 0.03 µM): 0.15%
viability, T/C (second compound 0.1 µM, first compound 0.0949 µM): 0.19%
viability, T/C (second compound 0.1 µM, first compound 0.3 µM): 0.11%
viability, T/C (second compound 0.316 µM, first compound 0.000949 µM): 20.7%
viability, T/C (second compound 0.316 µM, first compound 0.003 µM): 1.68%
viability, T/C (second compound 0.316 µM, first compound 0.00949 µM): 0.49%
viability, T/C (second compound 0.316 µM, first compound 0.03 µM): 0.11%
viability, T/C (second compound 0.316 µM, first compound 0.0949 µM): 0.9%
viability, T/C (second compound 0.316 µM, first compound 0.3 µM): 0.12%
viability, T/C (second compound 1 µM, first compound 0.000949 µM): 0.18%
viability, T/C (second compound 1 µM, first compound 0.003 µM): 1.45%
viability, T/C (second compound 1 µM, first compound 0.00949 µM): 0.95%
viability, T/C (second compound 1 µM, first compound 0.03 µM): 0.06%
viability, T/C (second compound 1 µM, first compound 0.0949 µM): 0.3%
viability, T/C (second compound 1 µM, first compound 0.3 µM): 0.08%
viability, T/C (second compound 3.16 µM, first compound 0.000949 µM): 0.24%
viability, T/C (second compound 3.16 µM, first compound 0.003 µM): 0.69%
viability, T/C (second compound 3.16 µM, first compound 0.00949 µM): 0.24%
viability, T/C (second compound 3.16 µM, first compound 0.03 µM): 0.05%
viability, T/C (second compound 3.16 µM, first compound 0.0949 µM): 0.07%
viability, T/C (second compound 3.16 µM, first compound 0.3 µM): 0.09%
viability, T/C (second compound 10 µM, first compound 0.000949 µM): 1.09%
viability, T/C (second compound 10 µM, first compound 0.003 µM): 0.98%
viability, T/C (second compound 10 µM, first compound 0.00949 µM): 0.26%
viability, T/C (second compound 10 µM, first compound 0.03 µM): 2.17%
viability, T/C (second compound 10 µM, first compound 0.0949 µM): 0.59%
viability, T/C (second compound 10 µM, first compound 0.3 µM): 0.24%

CC1COCCN1c1cc(C2(S(C)(=N)=O)CC2)nc(-c2ccnc3[nH]ccc23)n1 (stereo unspecified) + CN1CCN(c2cc(C(=O)Nc3cc4cc(-c5cnn(C)c5)ccc4cn3)ccn2)CC1
IC50 (second compound 0.0316 µM): 2500 nM
IC50 (second compound 0.1 µM): 2820 nM
IC50 (second compound 0.316 µM): < 31.6 nM
IC50 (second compound 1 µM): < 31.6 nM
IC50 (second compound 3.16 µM): < 31.6 nM
IC50 (second compound 10 µM): < 31.6 nM
viability, T/C [1]: 98.2%
viability, T/C [2]: 95.1%
viability, T/C [3]: 80.2%
viability, T/C [4]: 74%
viability, T/C [5]: 42.8%
viability, T/C [6]: 17.2%
viability, T/C [7]: 84.2%
viability, T/C [8]: 75.7%
viability, T/C [9]: 77.5%
viability, T/C [10]: 64.9%
viability, T/C [11]: 49.3%
viability, T/C [12]: 12.5%
viability, T/C [13]: 21.9%
viability, T/C [14]: 26.2%
viability, T/C [15]: 20.1%
viability, T/C [16]: 15.6%
viability, T/C [17]: 10.6%
viability, T/C [18]: 3.29%
viability, T/C [19]: 0.11%
viability, T/C [20]: 0.2%
viability, T/C [21]: 0.96%
viability, T/C [22]: 2.48%
viability, T/C [23]: 0.1%
viability, T/C [24]: 0.06%
viability, T/C [25]: 1.57%
viability, T/C [26]: 1.16%
viability, T/C [27]: 0.14%
viability, T/C [28]: 0.1%
viability, T/C [29]: 0.12%
viability, T/C [30]: 0.1%
viability, T/C [31]: 0.14%
viability, T/C [32]: 0.36%
viability, T/C [33]: 1.74%
viability, T/C [34]: 0.18%
viability, T/C [35]: 3%
viability, T/C [36]: 0.19%

O=C(c1cc(Cc2n[nH]c(=O)c3ccccc23)ccc1F)N1CCN(C(=O)C2CC2)CC1 + CN1CCN(c2cc(C(=O)Nc3cc4cc(-c5cnn(C)c5)ccc4cn3)ccn2)CC1
IC50 (second compound 0.0316 µM): > 10000 nM
IC50 (second compound 0.1 µM): 6850 nM
IC50 (second compound 0.316 µM): < 31.6 nM
IC50 (second compound 1 µM): < 31.6 nM
IC50 (second compound 3.16 µM): < 31.6 nM
IC50 (second compound 10 µM): < 31.6 nM
viability, T/C [1]: 101%
viability, T/C [2]: 98.7%
viability, T/C [3]: 87.9%
viability, T/C [4]: 89.9%
viability, T/C [5]: 78.6%
viability, T/C [6]: 51.7%
viability, T/C [7]: 73.5%
viability, T/C [8]: 76.6%
viability, T/C [9]: 87.8%
viability, T/C [10]: 94.2%
viability, T/C [11]: 76.6%
viability, T/C [12]: 36.9%
viability, T/C [13]: 16.7%
viability, T/C [14]: 22.3%
viability, T/C [15]: 15.1%
viability, T/C [16]: 23.2%
viability, T/C [17]: 16.8%
viability, T/C [18]: 12.3%
viability, T/C [19]: 0.11%
viability, T/C [20]: 1.49%
viability, T/C [21]: 0.2%
viability, T/C [22]: 1.01%
viability, T/C [23]: 0.08%
viability, T/C [24]: 1.87%
viability, T/C [25]: 1.24%
viability, T/C [26]: 0.11%
viability, T/C [27]: 1.32%
viability, T/C [28]: 0.09%
viability, T/C [29]: 0.1%
viability, T/C [30]: 0.09%
viability, T/C [31]: 0.19%
viability, T/C [32]: 0.11%
viability, T/C [33]: 0.46%
viability, T/C [34]: 0.66%
viability, T/C [35]: 0.18%
viability, T/C [36]: 0.19%
